Test results as given in patent publication US20050182011A1, “Inhibition of TRP channels as a treatment for cardiac hypertrophy and heart failure” (priority 2003, published 2005).
“Also recorded” adds a separate entry of the source.

How the values were obtained:
[1] = test system: purinergic P2X receptor calcium channels; conditions: cited from earlier work
[2] = test system: arachidonic acid-activated calcium channels; conditions: Luo et al., 2001; cited from earlier work
[3] = test system: calcium-activated chloride channels; conditions: Chorna-Ornan et al., 2001; cited from earlier work
ryanodine receptors = conditions: Maruyama et al., 1997; cited from earlier work
[4] = test system: neonatal rat ventricular myocytes (NRVM)
Procedure: NRVM culture. […] Myocyte preparations were pre-plated in Dulbecco's modified Eagle's medium (DMEM, Cellgro), supplemented with 10% (v/v) fetal bovine serum (FBS, HyClone), 4 mM L-glutamine and 1% penicillin/streptomycin for 1 hr at 37° C. to reduce fibroblast contamination, then plated at a density of 2.5×10^5 cells per well on 6-well tissue culture plates (or 10,000 cells/well on 96-well tissue culture plates) coated with a 0.2% (w/v) gelatin solution.
For infection with calcineurin adenovirus, NRVM were exposed to adenovirus at a multiplicity of infection (MOI) of 25 for 48 h prior to analysis.
Hypertrophy and Toxicity Assays. Primary hypertrophy endpoints for NRVM included quantitation of ANF secretion, total cellular protein and cell volume. ANF in media supernatants was quantitated by competitive ELISA using a monoclonal anti-ANF antibody (Biodesign) and a biotinylated ANF peptide (Phoenix Peptide). Total cellular protein was quantitated by standard Coomassie dye-binding assay; cells were lysed in protein assay reagent (BioRad) and absorbance at A595 was measured after 1 hr. […] After recovery by centrifugation, cell pellets were washed in PBS, resuspended in 10 ml IsoFlow electrolyte solution (Beckman-Coulter) and analyzed with a Z2 Coulter Particle Counter and Size Analyzer (Beckman-Coulter). […]

[5] = test system: MCIP1 protein (indicator of calcineurin activity) in NRVM; assay: Western blot of MCIP1 protein in NRVM; format: cell-based, rat; conditions: for expression of 38 kDa calcineurin-independent MCIP1 isoform: NRVM
Procedure: (§1) Western Blots. For protein sample preparation, cultured cells were lysed in extraction buffer (50 mM Tris, pH 7.5, 150 mM NaCl, 1% Triton X-100, 0.5% deoxycholic acid, 0.1% SDS) supplemented with protease inhibitors (1 mM AEBSF, 10 mg/ml aprotinin, 0.1 mM leupeptin, 2 mM EDTA). Left ventricle samples were ground under liquid nitrogen and solubilized in extraction buffer containing protease inhibitors. Homogenates were centrifuged 10 min at 4° C. at 16,000 g and supernatants recovered. Protein concentrations were determined by the bicinchoninic acid method (BCA Protein Assay, Pierce) with bovine serum albumin as a standard. Equivalent quantities of protein samples ([…]) were denatured in Laemmli buffer and resolved on Tris-glycine SDS-PAGE gels (4-20% acrylamide gradient, Invitrogen). Resolved proteins were transferred to nitrocellulose membranes, blocked in 5% nonfat dry milk, and probed with rabbit polyclonal primary antibody (diluted in TBST; 50 mM Tris, pH 7.5, 150 mM NaCl, 0.1% Tween-20) supplemented with 5% nonfat dry milk. Primary antibodies used include: anti-TRPC1 and TRPC3 (Alomone Labs) and anti-MCIP1 (Myogen, Inc). Membranes were washed, probed with a goat anti-rabbit horseradish peroxidase-conjugated secondary antibody (Southern Biotechnology Associates), and processed for enhanced chemiluminescence (SuperSignal reagent, Pierce). To verify equivalent protein loading, membranes were subsequently reprobed with a polyclonal rabbit antibody to the housekeeping gene IP90-calnexin. Densitometric analysis of immunoreactive band images was performed using a ChemiImager (Alpha Innotech).

[6] = test system: S-nitrosylation-activated calcium channels; conditions: Van Rossum et al., 2000; cited from earlier work
[7] = test system: voltage-gated calcium channels; conditions: Maruyama et al., 1997; cited from earlier work
[8] = Isoproterenol infusion model, heart weight to body weight ratio; format: in vivo; conditions: rat, isoproterenol 4.8 mg/kg/d by osmotic minipump, 4 days
Procedure: Isoproterenol Infusion. For pharmacologic induction of hypertrophy in vivo, nine to ten-week-old male Sprague-Dawley rats were anesthetized via passive inhalation of 2.0% isoflurane. When a level of surgical anesthesia was reached, an osmotic minipump (Alzet model 2001, Alza Corp., Palo Alto, Calif.) containing either vehicle (0.1% ascorbic acid in 0.9% NaCl), or isoproterenol (4.8 mg/kg/d) was subcutaneously implanted into the back between the scapulae followed by closure with 3-0 silk sutures. After 4 days of recovery, animals were sacrificed and left ventricular tissue processed for Western blot analysis as described above. Average heart weight to body weight ratios in isoproterenol versus vehicle-infused rats increased 48% (data not shown).

[9] = test system: TRPC channel protein in left ventricle; assay: Isoproterenol infusion model, Western blot of TRPC isoforms in left ventricle; format: in vivo, rat
Procedure: as §1, with “Innotech). Isoproterenol Infusion. For pharmacologic induction of hypertrophy in vivo, nine to ten-week-old male Sprague-Dawley rats were anesthetized via passive inhalation of 2.0% isoflurane. When a level of surgical anesthesia was reached, an osmotic minipump (Alzet model 2001, Alza Corp., Palo Alto, Calif.) containing either vehicle (0.1% ascorbic acid in 0.9% NaCl), or isoproterenol (4.8 mg/kg/d) was subcutaneously implanted into the back between the scapulae followed by closure with 3-0 silk sutures. After 4 days of recovery, animals were sacrificed and left ventricular tissue processed for Western blot analysis as described above. Average heart weight to body weight ratios in isoproterenol versus vehicle-infused rats increased 48% (data not shown).” for “Innotech).”

TRPC3 protein in NRVM = assay: Western blot of TRPC3 protein in cultured NRVM exposed to hypertrophic stimuli; format: cell-based, rat; conditions: 48 h, phenylephrine, FBS 10%, calcineurin adenovirus MOI 25
Procedure: as §1, with “To verify equivalent protein loading, membranes were subsequently reprobed with a polyclonal rabbit antibody to the housekeeping gene IP90-calnexin. Densitometric analysis of immunoreactive band images was performed using a ChemiImager (Alpha Innotech).” left out

For `NCCOB(c1ccccc1)c1ccccc1` [Compound 2-APB, 2-amino-ethoxydiphenyl borane], the “inhibition of purinergic P2X receptor calcium channels” value [1] is given as “not inhibited”, the “inhibition of arachidonic acid-activated calcium channels” value [2] is given as “not inhibited” and the “inhibition of calcium-activated chloride channels” value [3] is given as “not inhibited”. The “inhibition of ryanodine receptors” value (ryanodine receptors) was “not inhibited”, the “cytotoxicity as measured by adenylate kinase release” value ([4]; 48 hours, 0.3 to 30 μM) was “no significant cytotoxicity; also recorded: no significant toxicity was observed at any concentration” and the “expression of 38 kDa calcineurin-independent MCIP1 isoform” value [5] was “unaffected”. The “PE-dependent induction of 28 kDa MCIP1 protein” value ([5]; PE-stimulated NRVM, increasing concentrations) was “attenuates; also recorded: attenuated induction”, the “inhibition of S-nitrosylation-activated calcium channels” value [6] was “not inhibited” and the “inhibition of voltage-gated calcium channels” value [7] was “not inhibited”.
For `CC(C)NCC(O)c1ccc(O)c(O)c1` (stereo not drawn) [isoproterenol], the “increase of average heart weight to body weight ratio versus vehicle-infused rats” value [8] was 48%, the TRPC3 protein expression ([9]; Rat iso model) was “↑” and the TRPC5 protein expression ([9]; Rat iso model) was “increased expression”. The TRPC5 protein expression ([9]; Rat iso model, listed as iso) was “↑” and the “induction of ventricular TRPC3 protein expression” value ([9]; rat, chronic isoproterenol infusion, densitometry) was “approximately three-fold”.
For `CNC[C@H](O)c1cccc(O)c1` [phenylephrine], the “expression of 38 kDa calcineurin-independent MCIP1 isoform” value [5] was “unaffected”, the “expression of 28 kDa MCIP1 protein” value ([5]; NRVM stimulated with phenylephrine) was “strongly induced” and the “expression of TRPC3 channel protein in cardiomyocytes” value (TRPC3 protein in NRVM) was “significantly increased”.
With Triton X-100 the “fold change in AK release versus unstimulated control” value ([4]; 0.1% Triton X-100, positive control for cytotoxicity) was “approximately 6 fold”.
